Data from US10183039B2, “Methods for the production of collagen IV” (Vanderbilt University, priority 2013, dated 2019).

T1: collagen IV NC1 hexamer (Mus musculus, UniProt P02463+P08122)
T1 sequence (P02463 1445-1669 limits assumed): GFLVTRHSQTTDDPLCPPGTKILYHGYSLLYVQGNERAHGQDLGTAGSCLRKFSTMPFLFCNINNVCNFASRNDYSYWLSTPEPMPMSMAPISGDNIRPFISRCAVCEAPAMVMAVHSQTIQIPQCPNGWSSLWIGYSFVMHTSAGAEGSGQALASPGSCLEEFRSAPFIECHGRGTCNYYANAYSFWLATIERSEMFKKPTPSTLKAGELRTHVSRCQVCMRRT
T1 sequence (P08122 1484-1707 limits assumed): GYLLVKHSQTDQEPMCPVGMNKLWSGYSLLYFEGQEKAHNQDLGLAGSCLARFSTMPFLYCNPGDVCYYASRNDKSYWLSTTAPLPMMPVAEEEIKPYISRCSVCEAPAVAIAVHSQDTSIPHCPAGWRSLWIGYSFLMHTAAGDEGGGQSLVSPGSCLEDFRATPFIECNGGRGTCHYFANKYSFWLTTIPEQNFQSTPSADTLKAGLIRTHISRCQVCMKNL


Legend:
collagen IV NC1 hexamer [1] = biological target: T1, collagen IV NC1 hexamer; assay: Hypohalous acid oxidation of purified uncrosslinked NC1 hexamer; conditions: for crosslinked dimeric subunits (percentage of dimeric subunit): 500 nM NC1 hexamer, 5 μM hypohalous acid, 30 min at 37° C. (FIG. 4A)
Experimental: (FIG. 4A) Five hundred nanomolar collagen IV NC1 hexamer (3 μM potential crosslinks) was incubated alone (control) or with 5 μM hypochlorous (HOCl) or hypobromous acid (HOBr) for 30 min at 37° C. […] (FIGS. 4B-D) 16 nM myeloperoxidase (MPO) (FIG. 4B), eosinophil peroxidase (EPO) (FIG. 4C) or lactoperoxidase (LPO) (FIG. 4D) were reacted with 500 nM NC1 hexamer (3 μM potential crosslinks) for varying time points in 1×PBS with or without 10 μM H2O2. In the case of LPO, all reactions proceeded for 60 min. Collagen IV-sulfilimine crosslink content was visualized after SDS-PAGE and Coomassie blue staining of the reactions. Each gel is representative of three independent experiments. PHG, phloroglucinol; MW, molecular weight.
FIGS. 9A-D. Chemical mechanism of sulfilimine formation within the NC1 hexamer. (FIG. 9A) Purified uncrosslinked NC1 hexamer (5 μM) was reacted for 5 minutes at 37° with the indicated amounts of hypohalous acids and analyzed by SDS-PAGE. […] Values represent mean±S.D. (n=3). (FIG. 7B) Uncrosslinked NC1 hexamer (1.3 μM) in Br-Free PBS was preoxidzed with indicated amounts of HOCl for 1 min at 37 C, followed by post-oxidation with the addition of 8 mol eq. HOBr (or HOCl as a control) which was reacted for an additional minute at 37° C., then quenched with 20 mM methionine. Gel is representative of two experiments (FIG. 9C) XIC analysis of the residual monomeric NC1 subunit following HOCl oxidation (10 mol eq) compared to input NC1 monomer after SDS-PAGE and in-gel trypsin digestion. ^16O addition to the methionine residues was confirmed by MS3 analysis. (FIG. 9D) Met93 oxidation pathway consistent with experimental data and the resultant enthalphic landscape for S═N bond formation within the NC1 hexamer.
(FIG. 15) Fifty micromolar of hypohalous oxidants were added to 5 μM uncrosslinked NC1 domains, and reacted for 5 minutes at 37° C. before quenching by adding L-methionine to 1 mM final concentration. […] Experiments were run in triplicate and analyzed by 12% non-reducing SDS-PAGE and ImageJ.
The efficiency of HOBr as a reagent was compared to other hypohalous acids, during a 5′ reaction with uncrosslinked hexamers containing 5 μM NC1 domains.
The inventors therefore tested the molar efficiency of oxidation of purified uncrosslinked NC1 hexamer with HOCl and HOBr (FIG. 9A). […] To test this, they pretreated uncrosslinked NC1 hexamer with varying concentrations of HOCl, then treated with HOBr. […] As an independent approach to testing the dead-end sulfoxide hypothesis, the inventors pretreated NC1 hexamer with escalating levels of H2O2, a reagent known to generate methionine sulfoxides (Liang et al., 2012). […] They next decided to directly visualize the peptide containing Met93, the S donor of the S═N bond, within the residual monomeric NC1 fraction after HOCl oxidation and compare its oxidation status to untreated NC1 hexamer.

[2] = HOBr versus HOCl, methionine to dehydromethionine; cited from earlier work
[3] = Peroxidase activity of media from transfected cells (tetramethylbenzidine colorimetric assay); assay type: biochemical; conditions: media of transiently transfected HEK293T cells
Experimental: FIGS. 5A-D—Peroxidasin uniquely crosslinks native collagen IV networks. (FIG. 5A) Experimental design of ‘overlay’ experiments. PFHR-9 cells were grown in the presence of phloroglucinol (PHG; 50 μM) to deposit uncrosslinked collagen IV (Col IV) networks. The cells were then removed, and the basement membrane was extracted with 4 M guanidine (Gdn) to inactivate endogenous peroxidasin. Cells stably transfected with human peroxidasin (PXDN) or untransfected HEK293 cells (WT HEK) were plated on top of the PFHR9 basement membrane, which was subsequently analyzed for collagen IV crosslink content. (FIG. 5B) Collagen IV-sulfilimine bond formation in the indicated experimental conditions as shown by stained SDS-PAGE gel. Two (WT HEK cells) or three (PXDN, with or without PHG) out of five independent experiments are shown. MW, molecular weight. (FIG. 5C) Coomassie blue-stained gel of collagen IVNC1 hexamers isolated from uncrosslinked PFHR-9 basement membrane overlaid with HEK293T cells transiently transfected with human peroxidasin cDNA, mouse myeloperoxidase cDNA (MPO), mouse lactoperoxidase cDNA (LPO) or empty vector (Mock). (FIG. 5D) Media from PXDN, MPO, LPO and mock-transfected cells were assayed for peroxidase activity using a tetramethylbenzidine-based colorimetric assay. Activity was expressed relative to peroxidasin (A650 of given peroxidase divided by A650 for peroxidasin). […]

[4] = Hypohalous acid production by peroxidases (taurine haloamine trapping); assay type: biochemical; conditions: 1×PBS plus 100 μM NaBr or without added Br—
Experimental: (§1) (FIG. 3A) SDS-PAGE of reactions consisting of 16 nM purified human peroxidasin (PXDN), 500 nM monomeric NC1 hexamer (3 μM potential crosslinks) and 10 μM H2O2 in 1×PBS. Control reactions without H2O2 or in the presence of the peroxidase inhibitor phloroglucinol (PHG; 50 μM) were also conducted. D represents crosslinked dimeric NC1 subunits, and M denotes uncrosslinked monomeric subunits. MW, molecular weight. (FIG. 3B) Coomassie blue-stained gel after SDS-PAGE of collagen IVNC1 hexamer is shown to illustrate relative amounts of sulfilimine-crosslinked dimeric (D) and uncrosslinked monomeric (M) subunits after incubation of uncrosslinked PFHR-9 basement membranes in varying buffer halide concentrations (Br— or Cl— as K+ salt) with or without 1 mM H2O2. (FIG. 3C) PXDN-mediated hypohalous acid (HOX) production expressed as nmol hypohalous acid generated per nmol enzyme per min, measured in 1×PBS plus 100 μM NaBr. Values represent mean±s.e.m. (n=3). (FIG. 3D) HOCl production measured directly in 1×PBS without added Br—. Values denote mean±s.e.m. (n=4). […] (FIG. 3E) HOX production, measured in nmol HOX generated per nmol enzyme per min for myeloperoxidase (MPO), eosinophil peroxidase (EPO) or LPO in 1×PBS plus 100 μM NaBr. Values represent mean±s.e.m. (n=3).
Hypohalous acids were trapped as stable taurine haloamines, which oxidize tetramethylbenzidine to yield a colorimetric measure of hypohalous acid concentration and production (Dypbukt et al., 2005).
Animal heme peroxidases, such as peroxidasin, myeloperoxidase, eosinophil peroxidase and lactoperoxidase, catalyze oxidative reactions using distinct halogenation and peroxidase cycles (Obinger, 2006). Both begin with hydrogen peroxide oxidation of the prosthetic heme iron to form an intermediate denoted compound I (Obinger, 2006). Compound I may oxidize halides into their respective hypohalous acids (or related oxidants in equilibrium), which may directly or indirectly halogenate susceptible moieties. Alternatively, compound I undergoes sequential reduction to form single electron-free radicals of energetically favorable substrates in the peroxidase cycle. Both pathways eventually regenerate reduced, native enzyme (Obinger, 2006). To determine whether peroxidasin forms sulfilimine bonds using a halogenation cycle, the inventors first tested whether peroxidasin crosslinks collagen IV in the absence of halides.

collagen IV NC1 hexamer [5] = assay: Purified peroxidases reacted with uncrosslinked NC1 hexamer and H2O2; assay type: biochemical, mouse; conditions: 16 nM enzyme, 500 nM NC1 hexamer, 10 μM H2O2, 1×PBS
Experimental: as §1
PHG, phloroglucinol; MW, molecular weight.
If peroxidasin uses hypohalous acids as intermediates to form sulfilimine bonds, these intermediates should recapitulate the reaction when directly added to purified, uncrosslinked collagen IV NC1 hexamer. […] Alternatively, other peroxidasesis provided to form reactive hypohalous acids.

Molecule | crosslinked dimeric subunits (percentage of dimeric subunit) (collagen IV NC1 hexamer [1]) | crosslinked dimeric subunits (percentage of dimeric subunit) (collagen IV NC1 hexamer [1]; listed as hypobromous acid) | dimer formation, molar efficiency of oxidation (collagen IV NC1 hexamer [1]; 5 μM NC1 hexamer, 5 minutes at 37° (FIG. 9A)) | efficiency versus other hypohalous acids in forming sulfilimine bonds (collagen IV NC1 hexamer [1]; 5 min reaction, 5 μM NC1 domains) | S═N bond formation as share of total Met93 oxidized (collagen IV NC1 hexamer [1]; oxidation event 1 (OE1), S—Cl or S—Br halosulfonium intermediate) [%] | effectiveness at forming a sulfilimine bond [2] | enzymatic activity relative to peroxidasin [3] | hypohalous acid formation [4] | formation of sulfilimine crosslinks in NC1 hexamer (collagen IV NC1 hexamer [5])
OBr [HOBr, hypobromous acid] | increased significantly | yielded crosslinked dimeric subunits | efficiently formed dimers even at parity with NC1 concentrations | superior to all other examined reagents | 56.1 | approximately twice as effective as HOCl | – | – | –
myeloperoxidase: animal heme peroxidase used as comparator (protein, UniProt P05164 165-745, looked up) Myeloperoxidase: VTCPEQDKYRTITGMCNNRRSPTLGASNRAFVRWLPAEYEDGFSLPYGWTPGVKRNGFPVALARAVSNEIVRFPTDQLTPDQERSLMFMQWGQLLDHDLDFTPEPAARASFVTGVNCETSCVQQPPCFPLKIPPNDPRIKNQADCIPFFRSCPACPGSNITIRNQINALTSFVDASMVYGSEEPLARNLRNMSNQLGLLAVNQRFQDNGRALLPFDNLHDDPCLLTNRSARIPCFLAGDTRSSEMPELTSMHTLLLREHNRLATELKSLNPRWDGERLYQEARKIVGAMVQIITYRDYLPLVLGPTAMRKYLPTYRSYNDSVDPRIANVFTNAFRYGHTLIQPFMFRLDNRYQPMEPNPRVPLSRVFFASWRVVLEGGIDPILRGLMATPAKLNRQNQIAVDEIRERLFEQVMRIGLDLPALNMQRSRDHGLPGYNAWRRFCGLPQPETVGQLGTVLRNLKLARKLMEQYGTPNNIDIWMGGVSEPLKRKGRVGPLLACIIGTQFRKLRDGDRFWWENEGVFSMQQRQALAQISLPRIICDNTGITTVSKNNIFMSNSYPRDFVNCSTLPALNLASWREAS | – | – | – | – | – | – | at least 30 fold | preferentially formed hypochlorous acid | formed sulfilimine crosslinks in collagen IV
